Data taken from the supplement of paper PMC8612539.

Experiments:
Pasteurella multocida = experiment: minimum inhibitory concentration (MIC)
Experimental: (§1)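 Broth microdilution MIC (Sensititre BOPO7F bovine plate, CLSI methods) of 19 antimicrobials against field isolates of P. multocida, M. haemolytica, H. somni (deep nasopharyngeal swabs) and E. coli, Enterococcus spp. (rectal swabs) from weaned dairy heifers. Incubation 16-24 h at 35 C. MIC is the lowest concentration preventing visible growth. Values with <= or > lie at the tested range limits. Trimethoprim-sulfamethoxazole is given as the trimethoprim component of a 1:19 mixture.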

Enterococcus spp. = experiment: minimum inhibitory concentration (MIC)
Experimental: as §1

COc1cc(Cc2cnc(N)nc2N)cc(OC)c1OC.Cc1cc(NS(=O)(=O)c2ccc(N)cc2)no1 [trimethoprim-sulfamethoxazole]
minimum inhibitory concentration [µg/mL]
Settings | Enterococcus spp. | Pasteurella multocida
isolate (source animal id): 2 | ≤ 2 | –
isolate (source animal id): 10 | – | ≤ 2
isolate (source animal id): 11 | – | ≤ 2
isolate (source animal id): 12 | – | ≤ 2
isolate (source animal id): 19 | – | ≤ 2
isolate (source animal id): 23 | – | ≤ 2
isolate (source animal id): 26 | – | ≤ 2
isolate (source animal id): 30 | – | ≤ 2
isolate (source animal id): 34 | – | ≤ 2
isolate (source animal id): 35 | > 2 | –
isolate (source animal id): 36 | – | ≤ 2
isolate (source animal id): 37 | – | ≤ 2
isolate (source animal id): 42 | ≤ 2 | –
isolate (source animal id): 44 | > 2 | –
isolate (source animal id): 46 | – | ≤ 2
isolate (source animal id): 48 | – | ≤ 2
isolate (source animal id): 49 | – | ≤ 2
isolate (source animal id): 54 | – | ≤ 2
isolate (source animal id): 55 | – | ≤ 2
isolate (source animal id): 58 | – | ≤ 2
isolate (source animal id): 60 | – | ≤ 2
isolate (source animal id): 61 | – | ≤ 2
isolate (source animal id): 63 | – | ≤ 2
isolate (source animal id): 64 | – | ≤ 2
isolate (source animal id): 65 | – | ≤ 2
isolate (source animal id): 66 | – | ≤ 2
isolate (source animal id): 67 | – | ≤ 2
isolate (source animal id): 69 | – | ≤ 2
isolate (source animal id): 73 | – | ≤ 2
isolate (source animal id): 75 | – | ≤ 2
isolate (source animal id): 76 | – | ≤ 2
isolate (source animal id): 77 | – | ≤ 2
isolate (source animal id): 78 | – | ≤ 2
isolate (source animal id): 79 | ≤ 2 | –
isolate (source animal id): 80 | – | ≤ 2
isolate (source animal id): 82 | – | ≤ 2
isolate (source animal id): 83 | – | ≤ 2
isolate (source animal id): 88 | ≤ 2 | > 2
isolate (source animal id): 91 | ≤ 2 | –
isolate (source animal id): 92 | ≤ 2 | ≤ 2
isolate (source animal id): 94 | – | ≤ 2
isolate (source animal id): 98 | – | ≤ 2
isolate (source animal id): 104 | – | ≤ 2
isolate (source animal id): 111 | ≤ 2 | –
isolate (source animal id): 115 | – | > 2
isolate (source animal id): 117 | – | ≤ 2
isolate (source animal id): 118 | – | ≤ 2
isolate (source animal id): 121 | – | > 2
isolate (source animal id): 122 | > 2 | –
isolate (source animal id): 123 | ≤ 2 | –
isolate (source animal id): 124 | – | ≤ 2
isolate (source animal id): 125 | – | ≤ 2
isolate (source animal id): 128 | – | > 2
isolate (source animal id): 131 | – | ≤ 2
isolate (source animal id): 133 | ≤ 2 | –
isolate (source animal id): 135 | – | > 2
isolate (source animal id): 136 | – | > 2
isolate (source animal id): 140 | – | ≤ 2
isolate (source animal id): 144 | – | ≤ 2
isolate (source animal id): 146 | – | ≤ 2
isolate (source animal id): 150 | – | > 2
isolate (source animal id): 151 | – | > 2
isolate (source animal id): 153 | – | ≤ 2
isolate (source animal id): 155 | – | ≤ 2
isolate (source animal id): 157 | – | ≤ 2
isolate (source animal id): 158 | > 2 | –
isolate (source animal id): 160 | – | > 2
isolate (source animal id): 164 | – | > 2
isolate (source animal id): 165 | – | > 2
isolate (source animal id): 167 | – | ≤ 2
isolate (source animal id): 168 | ≤ 2 | ≤ 2
isolate (source animal id): 169 | ≤ 2 | ≤ 2
isolate (source animal id): 170 | – | ≤ 2
isolate (source animal id): 171 | ≤ 2 | ≤ 2
isolate (source animal id): 172 | – | ≤ 2
isolate (source animal id): 173 | – | ≤ 2
isolate (source animal id): 174 | – | ≤ 2
isolate (source animal id): 175 | ≤ 2 | ≤ 2
isolate (source animal id): 176 | – | ≤ 2
isolate (source animal id): 177 | ≤ 2 | ≤ 2
isolate (source animal id): 178 | – | ≤ 2
isolate (source animal id): 179 | – | ≤ 2
isolate (source animal id): 181 | ≤ 2 | –
isolate (source animal id): 182 | ≤ 2 | ≤ 2
isolate (source animal id): 183 | ≤ 2 | –
isolate (source animal id): 187 | ≤ 2 | –
isolate (source animal id): 190 | ≤ 2 | –
isolate (source animal id): 192 | – | ≤ 2
isolate (source animal id): 193 | – | ≤ 2
isolate (source animal id): 194 | ≤ 2 | –
isolate (source animal id): 195 | ≤ 2 | ≤ 2
isolate (source animal id): 196 | – | ≤ 2
isolate (source animal id): 197 | ≤ 2 | ≤ 2
isolate (source animal id): 198 | – | ≤ 2
isolate (source animal id): 199 | – | ≤ 2
isolate (source animal id): 200 | – | ≤ 2
isolate (source animal id): 201 | – | ≤ 2
isolate (source animal id): 203 | – | ≤ 2
isolate (source animal id): 204 | – | ≤ 2
isolate (source animal id): 205 | – | ≤ 2
isolate (source animal id): 206 | – | ≤ 2
isolate (source animal id): 207 | – | ≤ 2
isolate (source animal id): 208 | – | ≤ 2
isolate (source animal id): 209 | – | ≤ 2
isolate (source animal id): 210 | – | ≤ 2
isolate (source animal id): 211 | ≤ 2 | –
isolate (source animal id): 213 | – | ≤ 2
isolate (source animal id): 214 | > 2 | –
isolate (source animal id): 216 | – | ≤ 2
isolate (source animal id): 222 | ≤ 2 | –
isolate (source animal id): 223 | ≤ 2 | ≤ 2
isolate (source animal id): 227 | – | ≤ 2
isolate (source animal id): 228 | ≤ 2 | –
isolate (source animal id): 229 | – | ≤ 2
isolate (source animal id): 230 | ≤ 2 | –
isolate (source animal id): 233 | – | ≤ 2
isolate (source animal id): 234 | – | ≤ 2
isolate (source animal id): 235 | ≤ 2 | –
isolate (source animal id): 236 | ≤ 2 | –
isolate (source animal id): 237 | – | ≤ 2
isolate (source animal id): 239 | ≤ 2 | –
isolate (source animal id): 241 | ≤ 2 | ≤ 2
isolate (source animal id): 244 | ≤ 2 | –
isolate (source animal id): 245 | – | ≤ 2
isolate (source animal id): 246 | ≤ 2 | –
isolate (source animal id): 247 | ≤ 2 | ≤ 2
isolate (source animal id): 250 | ≤ 2 | ≤ 2
isolate (source animal id): 252 | > 2 | –
isolate (source animal id): 254 | – | ≤ 2
isolate (source animal id): 255 | – | ≤ 2
isolate (source animal id): 258 | – | ≤ 2
isolate (source animal id): 261 | – | ≤ 2
isolate (source animal id): 262 | – | ≤ 2
isolate (source animal id): 268 | ≤ 2 | –
isolate (source animal id): 269 | – | ≤ 2
isolate (source animal id): 270 | – | ≤ 2
isolate (source animal id): 274 | – | ≤ 2
isolate (source animal id): 275 | – | ≤ 2
isolate (source animal id): 276 | – | ≤ 2
isolate (source animal id): 277 | – | ≤ 2
isolate (source animal id): 278 | – | ≤ 2
isolate (source animal id): 279 | – | ≤ 2
isolate (source animal id): 280 | – | > 2
isolate (source animal id): 282 | ≤ 2 | –
isolate (source animal id): 284 | – | ≤ 2
isolate (source animal id): 285 | > 2 | ≤ 2
isolate (source animal id): 287 | – | ≤ 2
isolate (source animal id): 289 | ≤ 2 | –
isolate (source animal id): 290 | ≤ 2 | ≤ 2
isolate (source animal id): 294 | – | ≤ 2
isolate (source animal id): 295 | – | ≤ 2
isolate (source animal id): 296 | ≤ 2 | ≤ 2
isolate (source animal id): 298 | ≤ 2 | –
isolate (source animal id): 301 | ≤ 2 | –
isolate (source animal id): 307 | – | ≤ 2
isolate (source animal id): 310 | > 2 | ≤ 2
isolate (source animal id): 311 | – | ≤ 2
isolate (source animal id): 312 | – | ≤ 2
isolate (source animal id): 313 | – | ≤ 2
isolate (source animal id): 315 | – | ≤ 2
isolate (source animal id): 316 | – | ≤ 2
isolate (source animal id): 318 | – | ≤ 2
isolate (source animal id): 319 | – | ≤ 2
isolate (source animal id): 320 | ≤ 2 | ≤ 2
isolate (source animal id): 321 | – | ≤ 2
isolate (source animal id): 322 | – | ≤ 2
isolate (source animal id): 324 | – | ≤ 2
isolate (source animal id): 325 | – | ≤ 2
isolate (source animal id): 328 | – | ≤ 2
isolate (source animal id): 330 | – | ≤ 2
isolate (source animal id): 331 | ≤ 2 | ≤ 2
isolate (source animal id): 333 | ≤ 2 | ≤ 2
isolate (source animal id): 336 | – | ≤ 2
isolate (source animal id): 337 | – | ≤ 2
isolate (source animal id): 339 | – | ≤ 2
isolate (source animal id): 340 | – | ≤ 2
isolate (source animal id): 341 | > 2 | ≤ 2
